Patent US12172972B1, “3-(3-bromophenyl)-5-((2-isopropyl-5-methylphenoxy)methyl)-1,2,4-oxadiazole as an anti-cancer and antimicrobial compound” (KING FAISAL UNIVERSITY, priority 2023, dated 2024)

Assays:
Format in all cases: cell-based
Escherichia coli = assay: agar plate disc-diffusion, inhibition zone
Procedure: (§1) The agar plate disc-diffusion method was applied. […] The discs were then placed onto the surface of agar plates (nutrient agar for bacteria and Sabouraud's dextrose agar for fungi) seeded with the test organism. Each plate contained 15 mL of the agar medium, previously seeded with 0.2 mL of the broth culture of each organism pregrown for 18 hours. The plates were incubated at 37° C. for 48 h, and 72 h for fungi. The inhibition zones were measured in mm. Discs impregnated with DMSO were used as a control, and its inhibition zone was subtracted from the tested compound actual inhibition zone.

[1] = tested on: Chrysosporium keratinophilum; assay: agar plate disc-diffusion, inhibition zone
Procedure: as §1

Aspergillus flavus = assay: agar plate disc-diffusion, inhibition zone
Procedure: as §1

Pseudomonas aeruginosa = assay: agar plate disc-diffusion, inhibition zone
Procedure: as §1

Staphylococcus aureus = assay: agar plate disc-diffusion, inhibition zone
Procedure: as §1

Bacillus cereus = assay: agar plate disc-diffusion, inhibition zone
Procedure: as §1

different microbes = assay: antimicrobial activity, agar plate disc-diffusion (overall statement); conditions: against different microbes
Procedure: The agar plate disc-diffusion method was applied. Sterilized filter papers (6 mm in diameter) were wetted with 10 μL of a solution of 3-(3-bromophenyl)-5-((2-isopropyl-5-methylphenoxy)methyl)-1,2,4-oxadiazole (3) to be tested, containing 10 mg/mL in DMSO, and the discs were allowed to air dry. The discs were then placed onto the surface of agar plates (nutrient agar for bacteria and Sabouraud's dextrose agar for fungi) seeded with the test organism. Each plate contained 15 mL of the agar medium, previously seeded with 0.2 mL of the broth culture of each organism pregrown for 18 hours. The plates were incubated at 37° C. for 48 h, and 72 h for fungi. The inhibition zones were measured in mm. Discs impregnated with DMSO were used as a control, and its inhibition zone was subtracted from the tested compound actual inhibition zone.

[2] = tested on: human prostate cancer cells (PC3); assay: cytotoxicity by SRB assay; conditions: 0.01 μM to 100 μM, 72 h
From the text: (§2) The anticancer activity of the described synthesized compounds against highly aggressive androgen-independent metastatic human prostate cancer cells (PC3) and osteosarcoma (MG-63) cells. The human prostate cancer cells (PC3) and human osteosarcoma cells (MG-63) were obtained from Nawah Scientific Inc. (Mokatam, Cairo, Egypt) and cultured in DMEM (Dulbecco's modified eagle's medium), Gibco, USA, supplemented with fetal bovine serum (FBS) at a concentration of 10% and 100 U/mL of penicillin and streptomycin (PS). The Cells were incubated at 37° C. in a humidified environment that contained 5% CO2.
(§3) Cells were seeded in 96-well plates as aliquots of 100 μL cell suspension and incubated in a complete media for 24 h, afterward, cells were treated with 3-(3-bromophenyl)-5-((2-isopropyl-5-methylphenoxy)methyl)-1,2,4-oxadiazole at diverse concentrations ranging from 0.01 μM to 100 μM for 72 h. Then, cells were fixed at 4° C. for one hour with 150 μL of 10% trichloroacetic acid (TCA). […] Then, 150 μL of Tris pH 10.5 (10 mM) was added, and the absorbance was measured at 540 nm using a BMG LABTECH®-FLUOstar Omega microplate reader (Ortenberg, Germany). Half maximal inhibitory concentrations (IC50) values were calculated for each experiment using GraphPad Prism 6 software. […]
(§4) The inhibition was calculated using the following equation: Inhibition %=100−Average Viability

[3] = tested on: human osteosarcoma cells (MG-63); assay: cytotoxicity by SRB assay; conditions: MG-63 cells, 0.01 μM to 100 μM, 72 h
From the text: as §2, §3, §4

[4] = A = concentration of comp. = 10,000 μL
[5] = C = concentration of comp. = 50,000 μL

Row | Structure (SMILES) | inhibition zone (Escherichia coli; [4]) [mm] | inhibition zone (Escherichia coli; B =) [mm] | inhibition zone (Escherichia coli; [5]) [mm] | inhibition zone [1, 4] [mm] | inhibition zone ([1]; B = concentration of comp.) [mm] | inhibition zone [1, 5] [mm] | inhibition zone (Aspergillus flavus; [4]) [mm] | inhibition zone (Aspergillus flavus; B =) [mm] | inhibition zone (Aspergillus flavus; [5]) [mm] | inhibition zone (Pseudomonas aeruginosa; [4]) [mm] | inhibition zone (Pseudomonas aeruginosa; B =) [mm] | inhibition zone (Pseudomonas aeruginosa; [5]) [mm] | inhibition zone (Staphylococcus aureus; [4]) [mm] | inhibition zone (Staphylococcus aureus; B = concentration of comp.) [mm] | inhibition zone (Staphylococcus aureus; [5]) [mm] | inhibition zone (Bacillus cereus; [4]) [mm] | inhibition zone (Bacillus cereus; B =) [mm] | inhibition zone (Bacillus cereus; [5]) [mm] | further results
1 | O=C(O)c1cn(C2CC2)c2cc(N3CCNCC3)c(F)cc2c1=O [Cip., ciprofloxacin, reference compound] | 30 | 39 | 60 | 29 | 30 | 53 | 29 | 30 | 42 | 29 | 30 | 53 | 43 | 44 | 53 | 29 | 30 | 42 | 
2 | Cc1ccc(C(C)C)c(OCc2nc(-c3cccc(Br)c3)no2)c1 [Compound 3, 3-(3-bromophenyl)-5-((2-isopropyl-5-methylphenoxy)methyl)-1,2,4-oxadiazole] | 28 | 36 | 52 | 25 | 28 | 47 | 20 | 24 | 32 | 26 | 28 | 40 | 12 | 16 | 19 | 27 | 29 | 40 | antimicrobial activities (different microbes): excellent antimicrobial activities
3 | Cc1ccc(C(C)C)c(OCc2nc(-c3cccc(Br)c3)no2)c1 [3-(3-bromophenyl)-5-((2-isopropyl-5-methylphenoxy)methyl)-1,2,4-oxadiazole] |  |  |  |  |  |  |  |  |  |  |  |  |  |  |  |  |  |  | antiproliferative activities [2]: excellent antiproliferative activities; antiproliferative activities [3]: excellent antiproliferative activities
